target: bovine cathepsin B (Bos taurus, UniProt P07688); assay: Rate of hydrolysis of fluorescent dipeptide substrates incubated with bovine cathepsin B (release of 7-AMC); assay type: biochemical; conditions: incubation with bovine cathepsin B
Procedure: A convenient method was developed to identify suitable dipeptide units for the use in drug-linker intermediates. Cbz-protected dipeptides incorporated a fluorescent tag (7-amino-4-methylcouramin, 7-AMC) via a para-aminobenzyl carbonyl fragment were prepared by standard peptide chemistry as shown in Scheme 1. These dipeptide substrates were then incubated with bovine cathepsin B under a similar condition as described by Dubowchik (Biorg. Med. Chem. Lett. 1998, 8, 3341-3346). Rate of hydrolysis by bovine cathepsin B was measured by the release of 7-AMC (Table 1). Novel dipeptides with hydrolysis rates slower than the substrate A were rejected. The three dipeptide units in FS-9, FS-10 and FS-11 were selected as additional dipeptide units for drug-linker intermediate preparation.

SMILES | Rate of Hydrolysis [nmmol/min/mg]
CCOC(=O)N1CCC([C@H](NC(=O)OCc2ccccc2)C(=O)N[C@@H](CCCNC(N)=O)C(=O)Nc2ccc(COC(=O)Nc3ccc4c(C)cc(=O)oc4c3)cc2)CC1 | 0.63
Cc1cc(=O)oc2cc(NC(=O)OCc3ccc(NC(=O)[C@H](CCCNC(N)=O)NC(=O)[C@@H](NC(=O)OCc4ccccc4)C4CCS(=O)(=O)CC4)cc3)ccc12 | 0
Cc1cc(=O)oc2cc(NC(=O)OCc3ccc(NC(=O)[C@H](CCCN4CCOCC4)NC(=O)[C@@H](NC(=O)OCc4ccccc4)C(C)C)cc3)ccc12 | 27.2
Cc1cc(=O)oc2cc(NC(=O)OCc3ccc(NC(=O)[C@H](CCCN4CCCCC4)NC(=O)[C@@H](NC(=O)OCc4ccccc4)C(C)C)cc3)ccc12 | 25.1
Cc1cc(=O)oc2cc(NC(=O)OCc3ccc(NC(=O)C(CC4CCC(CN)CC4)NC(=O)[C@@H](NC(=O)OCc4ccccc4)C(C)C)cc3)ccc12 (stereo partly drawn) | 20.9
Cc1cc(=O)oc2cc(NC(=O)OCc3ccc(NC(=O)[C@H](CCCNC(N)=O)NC(=O)[C@@H](NC(=O)OCc4ccccc4)C(C)C)cc3)ccc12 [reference compound] | 2.67

The remaining lines, values ahead:

Rate of Hydrolysis [nmmol/min/mg] | SMILES
0.84 | Cc1cc(=O)oc2cc(NC(=O)OCc3ccc(NC(=O)[C@H](CCCNC(N)=O)NC(=O)[C@@H](NC(=O)OCc4ccccc4)C4CCNCC4)cc3)ccc12
0.59 | Cc1cc(=O)oc2cc(NC(=O)OCc3ccc(NC(=O)[C@H](CCCNC(N)=O)NC(=O)[C@@H](NC(=O)OCc4ccccc4)C4CCN(C)CC4)cc3)ccc12
0.84 | Cc1cc(=O)oc2cc(NC(=O)OCc3ccc(NC(=O)[C@H](CCCNC(N)=O)NC(=O)[C@@H](NC(=O)OCc4ccccc4)C4CCOCC4)cc3)ccc12
0 | Cc1cc(=O)oc2cc(NC(=O)OCc3ccc(NC(=O)[C@H](CCCNC(N)=O)NC(=O)[C@@H](NC(=O)OCc4ccccc4)C4CCSCC4)cc3)ccc12
0.55 | Cc1cc(=O)oc2cc(NC(=O)OCc3ccc(NC(=O)[C@H](CCCNC(N)=O)NC(=O)[C@@H](NC(=O)OCc4ccccc4)C4CC[S+]([O-])CC4)cc3)ccc12 (stereo partly drawn)
0 | Cc1cc(=O)oc2cc(NC(=O)OCc3ccc(NC(=O)[C@H](CCCNC(N)=O)NC(=O)[C@@H](NC(=O)OCc4ccccc4)C4CCCNC4)cc3)ccc12 (stereo partly drawn)

From US10280229B2, “Linkers and their application towards ADC” (MEDSHINE DISCOVERY INC., priority 2014, dated 2019)
